Experimental data from patent publication US20190125735A1, “INHIBITION OF P38 MAPK FOR THE TREATMENT OF CANCER” (Board of Regents, The University of Texas System, priority 2015, published 2019).

Tests used:
MDA-MB-231 cells = assay: Experimental metastasis model, MDA-MB-231 cells via tail vein of NOD/SCID mice; type: in vivo, mouse; details: daily injection beginning 48 h post-implantation
Excerpt: Since many breast cancer patients harbor occult micrometastases, at the time of diagnosis, and metastasis is often attributed to the systemic dissemination of tumor cells before or during surgical resection of the primary tumor (Pantel et al., 1999; Fehm et al., 2008), it was examined whether p38 inhibition could also prevent colonization and progression to macrometastasis. For this, an experimental metastasis model was employed, which circumvents the early steps of the metastatic cascade. Luciferase-labeled MDA-MB-231 cells were injected via the tail vein of NOD/SCID mice, and the emergence of lung metastases were monitored using bioluminescence. […] To eliminate the possibility of “off-target” effects, mice were intravenously injected with MDA-MB-231 cells expressing either control shRNA or p38 shRNA.
NOD/SCID and BALB/c mice were purchased from the Jackson Laboratory (Bar Harbor, Me., USA). […] Mice were assessed weekly for tumor growth and metastasis via subcutaneous injection of D-Luciferin (150 mg/kg; Caliper LifeSciences, Hopkinton, Mass., USA) and bioluminescent imaging (IVIS imaging system 200 series; Xenogen Corporation, PerkinElmer, Waltham, Mass., USA). Primary tumor size was measured with a caliper as the product of two perpendicular diameters (mm^2). […]

FOXC2 = FOXC2 protein levels by immunoblotting in mammary cell lines; type: cell-based, human; details: series of cell lines, relative to vehicle, 24 h
Protocol: Immortalized human mammary epithelial (HMLE) cells expressing empty vector (pWZL), Snail, Twist, Goosecoid (GSC), or an activated form of TGFβ1, V12H-Ras-transformed HMLE (HMLER) and HMLER-FOXC2 cells were maintained as previously described (Elenbaas et al., 2001) For 4-hydroxy-tamoxifen (4-OHT) treatment, HMLE-Snail-ER or HMLE-Twist-ER cells were exposed to 20 nM 4-OHT for the indicated number of days. MCF7, MDA-MB-231 and SUM159 human breast cancer cells and the 4T1 mouse mammary carcinoma cells were cultured as described. Human non-tumorigenic MCF10A cells were cultured as described (Hollier et al., 2013), and treated with 2.5 ng/ml TGFβ1 for 3 days to elicit EMT.
Immunoblotting and immunofluorescence (Mani et al., 2008) were performed as previously described. Primary antibodies were as follows: β-actin (Sigma, St Louis, Mo., USA; A3853), mouse anti-human FOXC2 (Dr. Naoyuki Miura, Hamamatsu University School of Medicine, Japan), goat polyclonal anti-FOXC2 (Santa Cruz Biotechnology, Dallas, Tex., USA; sc-21397), p-p38 (Cell Signaling, Danvers, Mass., USA; 4511), p38 (Cell Signaling; 9211), E-cadherin (BD Biosciences, San Jose, Calif., USA; 61081), fibronectin (BD Biosciences; 610077), vimentin (Novus Biologicals, Littleton, Colo., USA; NB200-623), ZEB1 (Novus Biologicals; NBP1-05987), and HA (Covance, Princeton, N.J., USA; MMS-101P).

[1] = test system: HMLE-Snail, HMLE-Twist, MDA-MB-231 and SUM159 cells; assay: Sphere formation of mesenchymal mammary cells; type: cell-based, human; details: relative to vehicle-treated cells
Protocol: It was next ascertained whether p38 inhibition compromises the maintenance of the established EMT phenotype.
Quantification of invadopodia (Eckert et al., 2011), scratch/wound-healing assays (Sarkar et al., 2015) fluorescence-activated cell sorting (FACS), and sphere-formation assays (Mani et al., 2008) were conducted as described previously.

HMLER cells = assay: Sphere formation of HMLER cells expressing FOXC2 variants; type: cell-based, human
Protocol: For this, phosphomimetic FOXC2(S367E) and non-phosphorylatable FOXC2(S367A) mutants were generated and their ability to bestow mesenchymal and stem-cell traits relative to wild-type FOXC2 (referred to as FOXC2) was evaluated.

DU145 cells [2] = assay: Wound healing assay, DU145 cells; type: cell-based, human; details: DU145, 5 μM, 7 days
Protocol: Immunoblotting, Immunofluorescence, RTPCR, wound healing- and tumorsphere assays were performed as previously described (Sarkar et al., 2015). Cell viability (MTS) was assessed using the CellTiter96 Aqueous One-Solution Cell Proliferation Assay kit (Promega).

DU145 cells [3] = assay: FACS CD44/CD24 in DU145 cells; type: cell-based, human; details: DU145, 5 μM, 7 days
Protocol: Fluorescence-activated cell sorting (FACS) for PSAHi & PSA−/lo cells and CD44Hi & CD24Lo cells was performed as described previously (Hollier et al., 2013) using BD Influx sorter.

BCR-ABL+ mouse ALL cells = details: MSC co-culture
Protocol: To measure cell proliferation, co-cultures of MSCs and luciferase-labeled leukemic cells were mixed with D-Luciferin (Biosynth, Itasca, Ill.) to a final concentration of 0.5 mg/mL. Samples were incubated at room temperature for 1 minute and were imaged with the IVIS Lumina imaging system (PerkinElmer, Waltham, Mass.).

## C[S+]([O-])c1ccc(-c2nc(-c3ccc(F)cc3)c(-c3ccncc3)[nH]2)cc1 (stereo not drawn) [SB203580, 4-(4-Fluorophenyl)-2-(4-methylsulfinylphenyl)-5-(4-pyridyl) 1H-imidazole]
MDA-MB-231 cells
  Event-free survival: extended event-free survival
  Metastatic burden (lung): significantly reduced the metastatic burden
FOXC2
  FOXC2 protein levels: consistent and striking decrease in FOXC2 protein levels
[1]
  Sphere-formation: substantially reduced sphere-formation
HMLER cells; HMLER-FOXC2(S367E) cells
  Sphere-forming capacity: retained the ability to form spheres even in the presence of SB203580
HMLER cells; HMLER-FOXC2 cells
  Sphere-forming capacity: reduced
DU145 cells [2]
  Migratory potential: significant reduction in migratory potential
DU145 cells [3]
  CD44^hi/CD24^lo fraction: significant reduction
BCR-ABL+ mouse ALL cells
  Proliferation of leukemic cells: did not affect proliferation or apoptosis of leukemic cells
